From patent publication US10787413B2, “Derivatives of curcuminoids and use thereof as an anticancer agent” (CHINA MEDICAL UNIVERSITY, priority 2016, dated 2020)
Read-outs that look alike come from different tables or passages of the source.

Experiments:
PC3 prostate cancer cell = experiment: MTT cell viability assay, PC3 prostate cancer cell; type: cell-based
Method: (§1) Cell viability was evaluated by measuring the reduction in MTT to yield blue formazan. Cells were cultured in 96-well plates, allowed to attach overnight, and then treated with compounds. After treatment, MTT solution (1 mg/ml) was added to each well, and plates were incubated for another 4 h. Medium were removed, blue formazan was dissolved in DMSO, and the absorbance was read at 570 nm^20.

[1] = tested on: HCT-116 colon cancer cell; experiment: MTT cell viability assay, HCT-116 colon cancer cell; type: cell-based; conditions: Homo sapiens
Method: as §1

[2] = tested on: MDA-MB-231 breast cancer cell; experiment: MTT cell viability assay, MDA-MB-231 breast cancer cell; type: cell-based, human; conditions: for IC50: Homo sapiens; for times more potent than curcumin (IC50): MDA-MB-231, 72 h treatment, curcumin IC50 16.23 μM
Method: Cell viability was evaluated by measuring the reduction in MTT to yield blue formazan. Cells were cultured in 96-well plates, allowed to attach overnight, and then treated with compounds. After treatment, MTT solution (1 mg/ml) was added to each well, and plates were incubated for another 4 h.

MDA-MB-231 Xenograft = conditions: Doxorubicin alone, IP 1 mg/kg/day
Method: Female nu/nu mice (5 weeks old) were from National Laboratory Animal Center, Taipei, Taiwan. […] MDA-MB-231 breast cancer cells (5×10^6 cells per mouse) were suspended in 0.1 ml of Matrigel solution (50% (v/v) Matrigel in PBS) and inoculated into the mammary fat pads of the mice. […] Compounds was administered P.O. once every day for 32 days. Tumor size and mouse body weight were measured once every 4 days, and tumor volume (mm3) was calculated using the equation: length×(width)^2×0.5. At the end of experiments, mice were sacrificed and tumor nodules were dissected and weighed.

[3] = PC-3, treated 24 hours, read-out: IC50 24 hours
[4] = PC-3, treated 48 hours, read-out: IC50 48 hours
[5] = PC-3, treated 72 hours, read-out: IC50 72 hours
[6] = HCT-116, treated 24 hours, read-out: IC50 24 hours
[7] = HCT-116, treated 48 hours, read-out: IC50 48 hours
[8] = HCT-116, treated 72 hours, read-out: IC50 72 hours
[9] = MDA-MB-231, 24 h, MDA-MB-231, treated 24 hours, read-out: IC50 24 hours
[10] = MDA-MB-231, 48 h, MDA-MB-231, treated 48 hours, read-out: IC50 48 hours
[11] = MDA-MB-231, 72 h, MDA-MB-231, treated 72 hours, read-out: IC50 72 hours

Row | SMILES | melting point [°C] | IC50 (PC3 prostate cancer cell; [3]) [µM] | IC50 (PC3 prostate cancer cell; [4]) [µM] | IC50 (PC3 prostate cancer cell; [5]) [µM] | IC50 [1, 6] [µM] | IC50 [1, 7] [µM] | IC50 [1, 8] [µM] | IC50 [2, 9] [µM] | IC50 [2, 10] [µM] | IC50 [2, 11] [µM] | times more potent than curcumin (IC50) [2] | reduction of MDA-MB-231 tumor weight compared with control group (MDA-MB-231 Xenograft) [%]
1 | COc1cc(/C=C/C(O)=C/C(=O)/C=C/c2ccc(OC(=O)C(C)(CO)CO)c(OC)c2)ccc1O [Compound 21b, 4-((1E,4Z,6E)-5-Hydroxy-7-(4-hydroxy-3-methoxyphenyl)-3-oxohepta-1,4,6-trien-1-yl)-2 methoxyphenyl 3-hydroxy-2-(hydroxymethyl)-2-methylpropanoate] | 104 to 105 | 24.6 ± 0.83 | 26.8 ± 0.74 | 17.4 ± 1.37 | 35.6 ± 2.5 | 20.4 ± 0.61 | 15.5 ± 0.16 | 13.2 ± 1.2 | 9.97 ± 1.12 | 5.94 |  | 
2 | CCC(CO)(CO)C(=O)Oc1ccc(/C=C/C(=O)/C=C(O)/C=C/c2ccc(O)c(OC)c2)cc1OC [Compound 22b, 4-((1E,4Z,6E)-5-Hydroxy-7-(4-hydroxy-3-methoxyphenyl)-3-oxohepta-1,4,6-trien-1-yl)-2-methoxyphenyl 2,2-bis(hydroxymethyl)butanoate] | 82 to 83 | 13.8 ± 1.48 | 14.4 ± 0.82 | 12.5 ± 0.1 | 21.2 ± 2.48 | 12.4 ± 0.16 | 11.4 ± 1.05 | 14.6 ± 2.42 | 7.55 ± 0.86 | 4.66 |  | 
3 | CCOc1cc(/C=C/C(=O)/C=C(O)/C=C/c2ccc(OC(=O)C(C)(CO)CO)c(OCC)c2)ccc1OC(=O)C(C)(CO)CO [Compound 26, ((1E,3Z,6E)-3-hydroxy-5-oxohepta-1,3,6-triene-1,7-diyl)bis(2-ethoxy-4,1-phenylene) bis(3-hydroxy-2-(hydroxymethyl)-2-methylpropanoate)] | 153 to 155 | 9.38 ± 0.01 | 9.53 ± 0.36 | 5.36 ± 0.07 | 8.33 ± 0.39 | 4.22 ± 0.05 | 3.79 ± 0.1 | 18.43 ± 0.15 | 8.85 ± 0.66 | 6.58 ± 0.81 |  | 
4 | CCOc1cc(/C=C/C(=O)/C=C(O)/C=C/c2ccc(OC(=O)C(CC)(CO)CO)c(OCC)c2)ccc1OC(=O)C(CC)(CO)CO [Compound 27, ((1E,3Z,6E)-3-hydroxy-5-oxohepta-1,3,6-triene-1,7-diyl)bis(2-ethoxy-4,1-phenylene) bis(2,2-bis(hydroxymethyl)butanoate)] | 161 to 162 | 8.18 ± 1.89 | 4.46 ± 0.15 | 3.06 ± 0.29 | 3.79 ± 0.03 | 3.18 ± 0.26 | 2.97 ± 0.13 | 8.04 ± 0.17 | 7.43 ± 1.36 | 5.49 ± 0.52 |  | 
5 | COc1ccc(/C=C/C(O)=C/C(=O)/C=C/c2ccc(OC(=O)C(C)(CO)CO)c(OC)c2)cc1OC [Compound 33, 4-((1E,4Z,6E)-7-(3,4-dimethoxyphenyl)-5-hydroxy-3-oxohepta-1,4,6-triene-1-yl)-2-methoxyphenyl 3-hydroxy-2-(hydroxymethyl)-2-methylpropanoate] | 99 to 101 | 7.77 ± 0.88 | 7.85 ± 0.81 | 7.64 ± 0.75 | 10.5 ± 0.64 | 7.56 ± 0.77 | 4.77 ± 0.24 | 4.69 ± 0.73 | 3.12 ± 0.17 | 2.55 |  | 
6 | COc1cc(/C=C/C(=O)C(CO)(CO)C(=O)/C=C/c2ccc(OC(=O)C(C)(CO)CO)c(OC)c2)ccc1OC(=O)C(C)(CO)CO [Compound 40, ((1E,6E)-4,4-bis(hydroxymethyl)-3,5-dioxohepta-1,6-diene-1,7-diyl)bis(2-methoxy-4-phenylene) bis(3-hydroxy-2-(hydroxymethyl)-2-methylpropanoate)] | 234 to 237 | > 100 | > 100 | 74.6 ± 2.04 | > 100 | 69.1 ± 3.11 | 58.04 ± 0.53 | > 100 | 84.9 ± 1.67 | 57.9 ± 2.73 |  | 
7 | COc1ccc(/C=C/C(=O)C(CO)(CO)C(=O)/C=C/c2ccc(OC)c(OC)c2)cc1OC [Compound 42, (1E,6E)-1,7-bis(3,4-dimethoxyphenyl)-4,4-bis(hydroxymethyl)hepta-1,6-diene-3,5-dione] |  | 77.2 ± 2.34 | 61.2 ± 2.3 | 26.1 ± 0.81 | 89.65 ± 0.49 | 8 ± 0.6 | 7.18 ± 0.68 | > 100 |  | 9.02 ± 1.13 |  | 
8 | COc1ccc(/C=C/C(=O)C(COC(=O)C(C)(CO)CO)(COC(=O)C(C)(CO)CO)C(=O)/C=C/c2ccc(OC)c(OC)c2)cc1OC [Compound 43, 2,2-bis((E)-3-(3,4-dimethoxyphenyl)acryloyl)propane-1,3-diylbis(3-hydroxy-2-(hydroxymethyl)-2-methylpropanoate)] |  | 67.7 ± 1.76 | 52.2 ± 1.23 | 51.3 ± 0.39 | 64.7 ± 1.56 |  | 25.1 ± 0.5 | 83 ± 0.17 |  | 17.3 ± 0.1 |  | 
9 | COc1ccc(/C=C/C(=O)C(COC(C)=O)(COC(C)=O)C(=O)/C=C/c2ccc(OC)c(OC)c2)cc1OC [Compound 44, 2,2-bis((E)-3-(3,4-dimethoxyphenyl)acryloyl)propane-1,3-diyl diacetate] |  | 3.68 ± 0.11 | 3.07 ± 0.37 | 0.85 ± 0.07 | 6.33 ± 1.01 | 3.66 ± 0.25 | 1.51 ± 0.55 | 7.21 ± 0.18 | 0.9 ± 0.03 | 0.61 ± 0.1 |  | 
10 | COc1cccc2c1C(=O)c1c(O)c3c(c(O)c1C2=O)C[C@@](O)(C(=O)CO)C[C@@H]3O[C@H]1C[C@H](N)[C@H](O)[C@H](C)O1 [Doxorubicin, reference compound] |  |  |  |  |  |  |  |  |  |  |  | 60

The next lines start with results.

Row | melting point [°C] | IC50 (PC3 prostate cancer cell; [3]) [µM] | IC50 (PC3 prostate cancer cell; [4]) [µM] | IC50 (PC3 prostate cancer cell; [5]) [µM] | IC50 [1, 6] [µM] | IC50 [1, 7] [µM] | IC50 [1, 8] [µM] | IC50 [2, 9] [µM] | IC50 [2, 10] [µM] | IC50 [2, 11] [µM] | times more potent than curcumin (IC50) [2] | SMILES | reduction of MDA-MB-231 tumor weight compared with control group (MDA-MB-231 Xenograft) [%]
11 | 192 to 194 | 8.46 ± 0.64 | 8.77 ± 0.8 | 5.59 ± 0.2 | 57.4 ± 12.2 | 8.64 ± 0.18 | 4.1 ± 0.06 | 26.7 ± 1.85 | 7.82 ± 0.56 | 6.74 |  | CC(CO)(CO)C(=O)Oc1ccc(/C=C/C(=O)/C=C(O)/C=C/c2ccc(OC(=O)C(C)(CO)CO)cc2)cc1 [Compound 23a, ((1E,3Z,6E)-3-Hydroxy-5-oxohepta-1,3,6-triene-1,7-diyl)bis(4,1-phenylene) bis(3-hydroxy-2-(hydroxymethyl)-2-methylpropanoate)] | 
12 | 206 to 208 | 20.1 ± 2.62 | 11 ± 0.44 | 5.22 ± 0.27 | 71.9 ± 7.87 | 11.3 ± 0.72 | 4.78 ± 0.66 | 19.5 ± 1.82 | 5.27 ± 0.57 | 1.33 | about 12 times | CC(CO)(CO)C(=O)Oc1ccc(/C=C/C(=O)/C=C(O)/C=C/c2ccc(O)cc2)cc1 [Compound 23b, 4-((1E,4Z,6E)-5-hydroxy-7-(4-hydroxyphenyl)-3-oxohept-1,4,6-trien-1-yl)phenyl 3-hydroxy-2-(hydroxymethyl)-2-methylpropanoate] | 
13 | 194 to 196 | 11.9 ± 1.4 | 6.43 ± 0.26 | 4.74 ± 0.04 | 11.4 ± 1.11 | 5.33 ± 0.29 | 2.79 ± 0.15 | 9.22 ± 2.24 | 5.11 ± 0.96 | 4.61 | about 3.5 times | COc1ccc(/C=C/C(=O)CC(=O)/C=C/c2ccc(OC)c(OC(=O)C(C)(CO)CO)c2)cc1OC(=O)C(C)(CO)CO [Compound 24a, ((1E,6E)-3,5-Dioxohepta-1,6-diene-1,7-diyl)bis(2-methoxy-5,1-phenylene) bis(3-hydroxy-2-(hydroxymethyl)-2-methylpropanoate)] | 
14 | 184 to 186 | 8.37 ± 0.81 | 3.75 ± 0.18 | 2.32 ± 0.05 | 7.57 ± 1.02 | 3.84 ± 0.41 | 1.95 ± 0.15 | 7.69 ± 0.82 | 1.99 ± 0.99 | 2.29 |  | COc1ccc(/C=C/C(=O)CC(=O)/C=C/c2ccc(OC)c(OC(=O)C(C)(CO)CO)c2)cc1O [Compound 24b, 5-((1E,6E)-7-(3-Hydroxy-4-methoxyphenyl)-3,5-dioxohepta-1,6-dien-1-yl)-2-methoxyphenyl 3-hydroxy-2-(hydroxymethyl)-2-methylpropanoate] | 
15 | 189 to 191 | 8.7 ± 0.14 | 3.67 ± 0.25 | 2.16 ± 0.12 | 7.71 ± 0.03 |  | 1.74 ± 0.02 | 8.64 ± 0.27 |  | 2 ± 0.02 |  | CCC(CC)(C(=O)/C=C/c1ccc(OC(=O)C(C)(CO)CO)c(OC)c1)C(=O)/C=C/c1ccc(OC(=O)C(C)(CO)CO)c(OC)c1 [Compound 35b, ((1E,6E)-4,4-Diethyl-3,5-dioxohepta-1,6-diene-1,7-diyl)bis(2-methoxy-4,1-phenylene) bis(3-hydroxy-2-(hydroxymethyl)-2-methylpropanoate)] | 
16 | 195 to 197 | 4.24 ± 0.18 | 3.54 ± 0.26 | 2.63 ± 0.77 | 2.18 ± 0.22 |  | 0.71 ± 0.01 | 9.02 ± 0.5 |  | 0.71 |  | C=CCC(CC=C)(C(=O)/C=C/c1ccc(OC(=O)C(C)(CO)CO)c(OC)c1)C(=O)/C=C/c1ccc(OC(=O)C(C)(CO)CO)c(OC)c1 [Compound 35e, ((1E,6E)-4,4-diallyl-3,5-dioxohepta-1,6-diene-1,7-diyl)bis(2-methoxy-4,1-phenylene) bis(3-hydroxy-2-(hydroxymethyl)-2-methylpropanoate)] | 
